Results reported in US8192962B2, “Processes for detecting toxic substances” (Daikin Industries, Ltd., priority 2001, dated 2012).

Test system: Energy system protein genes
Test: DNA chip mRNA expression in yeast, energy system protein genes (Table 4)
Format: cell-based, Saccharomyces cerevisiae S288C
Outline: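 Untreated cultures served as reference for log-phase S288C yeast given a growth-inhibiting, non-lethal toxicant dose for 2 h at 25° C. in YPD. Gene expression was measured on a whole-genome DNA chip from Cy3/Cy5-labeled cDNA.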

## CCCCCCCCCCCCOS(=O)(=O)[O-].[Na+] [(18), sodium lauryl sulfate]
Yeast gene YJR009C
  The level of expressed mRNA in the presence of chemical substance/The level of expressed mRNA in the absence of chemical substance: 1.3
Yeast gene YJR048W
  The level of expressed mRNA in the presence of chemical substance/The level of expressed mRNA in the absence of chemical substance: 1.2
Yeast gene YJR121W, cells incubated two hours with the chemical substance
  The level of expressed mRNA in the presence of chemical substance/The level of expressed mRNA in the absence of chemical substance: 1.4
Yeast gene YJR155W
  The level of expressed mRNA in the presence of chemical substance/The level of expressed mRNA in the absence of chemical substance: 1.4
Yeast gene YKL016C, cells incubated two hours with the chemical substance
  The level of expressed mRNA in the presence of chemical substance/The level of expressed mRNA in the absence of chemical substance: 1.7
Yeast gene YKL060C, cells incubated two hours with the chemical substance
  The level of expressed mRNA in the presence of chemical substance/The level of expressed mRNA in the absence of chemical substance: 1.7
Yeast gene YKL141W, cells incubated two hours with the chemical substance
  The level of expressed mRNA in the presence of chemical substance/The level of expressed mRNA in the absence of chemical substance: 1.8
Yeast gene YKL148C, cells incubated two hours with the chemical substance
  The level of expressed mRNA in the presence of chemical substance/The level of expressed mRNA in the absence of chemical substance: 1.0
Yeast gene YKR009C, cells incubated two hours with the chemical substance
  The level of expressed mRNA in the presence of chemical substance/The level of expressed mRNA in the absence of chemical substance: 2.5
Yeast gene YKR058W, cells incubated two hours with the chemical substance, 25° C., YPD medium
  The level of expressed mRNA in the presence of chemical substance/The level of expressed mRNA in the absence of chemical substance: 1.6
Yeast gene YKR097W
  The level of expressed mRNA in the presence of chemical substance/The level of expressed mRNA in the absence of chemical substance: 1.5
Yeast gene YLL041C, cells incubated two hours with the chemical substance
  The level of expressed mRNA in the presence of chemical substance/The level of expressed mRNA in the absence of chemical substance: 1.7
Yeast gene YLR038C, cells incubated two hours with the chemical substance
  The level of expressed mRNA in the presence of chemical substance/The level of expressed mRNA in the absence of chemical substance: 2.1
Yeast gene YLR044C, cells incubated two hours with the chemical substance
  The level of expressed mRNA in the presence of chemical substance/The level of expressed mRNA in the absence of chemical substance: 0.9
Yeast gene YLR134W, cells incubated two hours with the chemical substance
  The level of expressed mRNA in the presence of chemical substance/The level of expressed mRNA in the absence of chemical substance: 0.8
Yeast gene YLR258W, cells incubated two hours with the chemical substance
  The level of expressed mRNA in the presence of chemical substance/The level of expressed mRNA in the absence of chemical substance: 2.0
Yeast gene YLR284C, cells incubated two hours with the chemical substance
  The level of expressed mRNA in the presence of chemical substance/The level of expressed mRNA in the absence of chemical substance: 8.1
Yeast gene YLR295C, cells incubated two hours with the chemical substance, 25° C., YPD medium
  The level of expressed mRNA in the presence of chemical substance/The level of expressed mRNA in the absence of chemical substance: 1.5
Yeast gene YLR304C, cells incubated two hours with the chemical substance
  The level of expressed mRNA in the presence of chemical substance/The level of expressed mRNA in the absence of chemical substance: 0.7
Yeast gene YLR345W
  The level of expressed mRNA in the presence of chemical substance/The level of expressed mRNA in the absence of chemical substance: 1.4
Yeast gene YLR354C, cells incubated two hours with the chemical substance
  The level of expressed mRNA in the presence of chemical substance/The level of expressed mRNA in the absence of chemical substance: 1.5
Yeast gene YLR377C, cells incubated two hours with the chemical substance
  The level of expressed mRNA in the presence of chemical substance/The level of expressed mRNA in the absence of chemical substance: 1.4
Yeast gene YLR395C, cells incubated two hours with the chemical substance
  The level of expressed mRNA in the presence of chemical substance/The level of expressed mRNA in the absence of chemical substance: 2.3
Yeast gene YML087C
  The level of expressed mRNA in the presence of chemical substance/The level of expressed mRNA in the absence of chemical substance: 0.8
Yeast gene YML120C, cells incubated two hours with the chemical substance
  The level of expressed mRNA in the presence of chemical substance/The level of expressed mRNA in the absence of chemical substance: 1.6
Yeast gene YML129C, cells incubated two hours with the chemical substance
  The level of expressed mRNA in the presence of chemical substance/The level of expressed mRNA in the absence of chemical substance: 1.3
Yeast gene YMR073C, cells incubated two hours with the chemical substance
  The level of expressed mRNA in the presence of chemical substance/The level of expressed mRNA in the absence of chemical substance: 1.2
Yeast gene YMR118C
  The level of expressed mRNA in the presence of chemical substance/The level of expressed mRNA in the absence of chemical substance: 1.0
Yeast gene YMR205C, cells incubated two hours with the chemical substance
  The level of expressed mRNA in the presence of chemical substance/The level of expressed mRNA in the absence of chemical substance: 0.5
Yeast gene YMR261C, cells incubated two hours with the chemical substance
  The level of expressed mRNA in the presence of chemical substance/The level of expressed mRNA in the absence of chemical substance: 1.1
Yeast gene YMR267W, cells incubated two hours with the chemical substance, 25° C., YPD medium
  The level of expressed mRNA in the presence of chemical substance/The level of expressed mRNA in the absence of chemical substance: 1.3
Yeast gene YMR323W, cells incubated two hours with the chemical substance
  The level of expressed mRNA in the presence of chemical substance/The level of expressed mRNA in the absence of chemical substance: 0.6
Yeast gene YNL071W
  The level of expressed mRNA in the presence of chemical substance/The level of expressed mRNA in the absence of chemical substance: 1.2
Yeast gene YNL202W, cells incubated two hours with the chemical substance
  The level of expressed mRNA in the presence of chemical substance/The level of expressed mRNA in the absence of chemical substance: 3.3
Yeast gene YNL241C
  The level of expressed mRNA in the presence of chemical substance/The level of expressed mRNA in the absence of chemical substance: 1.0
Yeast gene YNL331C
  The level of expressed mRNA in the presence of chemical substance/The level of expressed mRNA in the absence of chemical substance: 1.3
Yeast gene YOL086C, cells incubated two hours with the chemical substance
  The level of expressed mRNA in the presence of chemical substance/The level of expressed mRNA in the absence of chemical substance: 1.3
Yeast gene YOL165C
  The level of expressed mRNA in the presence of chemical substance/The level of expressed mRNA in the absence of chemical substance: 1.0
Yeast gene YOR142W, cells incubated two hours with the chemical substance
  The level of expressed mRNA in the presence of chemical substance/The level of expressed mRNA in the absence of chemical substance: 1.0
Yeast gene YOR178C, cells incubated two hours with the chemical substance
  The level of expressed mRNA in the presence of chemical substance/The level of expressed mRNA in the absence of chemical substance: 1.5
Yeast gene YOR388C, cells incubated two hours with the chemical substance
  The level of expressed mRNA in the presence of chemical substance/The level of expressed mRNA in the absence of chemical substance: 0.9
Yeast gene YPL031C, cells incubated two hours with the chemical substance
  The level of expressed mRNA in the presence of chemical substance/The level of expressed mRNA in the absence of chemical substance: 1.2
Yeast gene YPL061W, cells incubated two hours with the chemical substance
  The level of expressed mRNA in the presence of chemical substance/The level of expressed mRNA in the absence of chemical substance: 2.6
Yeast gene YPL088W
  The level of expressed mRNA in the presence of chemical substance/The level of expressed mRNA in the absence of chemical substance: 8.3
Yeast gene YPL171C
  The level of expressed mRNA in the presence of chemical substance/The level of expressed mRNA in the absence of chemical substance: 1.5
Yeast gene YPL240C
  The level of expressed mRNA in the presence of chemical substance/The level of expressed mRNA in the absence of chemical substance: 1.0
Yeast gene YPL262W, cells incubated two hours with the chemical substance
  The level of expressed mRNA in the presence of chemical substance/The level of expressed mRNA in the absence of chemical substance: 1.2
Yeast gene YPL275W, cells incubated two hours with the chemical substance
  The level of expressed mRNA in the presence of chemical substance/The level of expressed mRNA in the absence of chemical substance: 1.0
Yeast gene YPL276W, cells incubated two hours with the chemical substance
  The level of expressed mRNA in the presence of chemical substance/The level of expressed mRNA in the absence of chemical substance: 0.8
Yeast gene YPR048W, cells incubated two hours with the chemical substance
  The level of expressed mRNA in the presence of chemical substance/The level of expressed mRNA in the absence of chemical substance: 0.8
Yeast gene YPR184W, cells incubated two hours with the chemical substance
  The level of expressed mRNA in the presence of chemical substance/The level of expressed mRNA in the absence of chemical substance: 1.7
